These results are taken from PMC9126595, “Identification of 3-(piperazinylmethyl)benzofuran derivatives as novel type II CDK2 inhibitors: design, synthesis, biological evaluation, and in silico insights” (Journal of Enzyme Inhibition and Medicinal Chemistry, 2022).

The test system of test [1] is non-tumorigenic human lung fibroblast MRC-5 cell line. As to the kind of experiment: Normal cell cytotoxicity, MRC-5. Particulars: MRC5, normal lung fibroblasts, mean of three separate experiments, read-out: IC50 MRC-5. The format is cell-based. As for the experimental part:
To test the safety of the newly synthesised compounds and their selectivity towards cancer cells, their cytotoxic activity was tested on non-tumorigenic human lung fibroblast MRC-5 cell line.

Test [2] has as its system A-549 lung carcinoma cell line. As to the kind of experiment: SRB anti-proliferative assay, A-549. The following applies: Homo sapiens, A549; SRB, 48 h; mean of 3 separate experiments; read-out: IC50 A-549. In kind it is cell-based, human. The source says: (§1) The experimental details for the performed biological assays; Sulforhodamine B (SRB) cytotoxicity, CDK2 kinase, Annexin V-FITC apoptosis, and cell cycle assays[86–89] were mentioned in the Supporting Information.
(§2) 1. Anti-proliferative activity assay
(§3) The examined human pancreatic cancer (Panc-1), breast cancer (MCF-7), and lung carcinoma (A549) cell lines have been obtained from American Type Culture Collection (ATCC). The cells were maintained in Dulbecco's modified Eagle's medium (DMEM) supplemented with 10% heat inactivated fetal calf serum (GIBCO), penicillin (100 U/ml) and streptomycin (100 µg/ml) at 37 °C in humidified atmosphere containing 5% CO2. […]
(§4) a 25 cm2 flask in 5 ml of culture medium. The anti-proliferative activity of the tested 3-(piperazinylmethyl)benzofurans (9, 11, 13, 15 and 17) was measured in vitro using the Sulfo-Rhodamine-B stain (SRB) assay. Briefly, cells were plated out in 96-well microtiter plate (0.5X10^4 cells/well) and incubated for 24 h before treatment with the tested hybrids to allow cells to attach to the bottom of the well of the plate. Tested benzofurans were dissolved in DMSO at 1 mg/ml immediately before use and diluted to the appropriate volume just before addition to the cell culture. Different concentrations of tested benzofurans, and Staurosporine were added to the cells (three wells were prepared for each individual dose). Cells were incubated with the hybrids for 48 […]
(§5) After 48 h cells were fixed, washed, and stained for 30 min with 0.4% (w/v) SRB dissolved in 1% acetic acid. Unbound dye was removed by four washes with 1% acetic acid, and attached stain was recovered with Tris-EDTA buffer. Color intensity was measured in an ELISA reader. The relation between percent of surviving fraction and log drug concentration is plotted to get the survival curve for each cell line. […]

Test [3] addresses T1, CDK2 (Homo sapiens, UniProt P24941).
T1 construct: purchased Promega V2971
As to the kind of experiment: CDK2 kinase inhibitory assay (Promega CDK2 Kinase Enzyme System). The following applies: mean ± SD of three separate experiments. In kind it is biochemical. The source says: The experimental details for the performed biological assays; Sulforhodamine B (SRB) cytotoxicity, CDK2 kinase, Annexin V-FITC apoptosis, and cell cycle assays[86–89] were mentioned in the Supporting Information. […]
4. CDK Kinase Inhibitory Activity
CDK2 Kinase Enzyme System (catalog No. V2971) (Promega, Milan, Italy), according to the
manufacturer’s instructions. […]

Test [4] relates to Panc-1 cells. As to the kind of experiment: Cell cycle analysis (PI flow cytometry). Particulars: Panc-1, IC50 dose, 24 h. In kind it is cell-based, human. Here is the method: as §3
a 25 cm2 flask in 5 ml of culture medium. […]
The concentration required for […]
concentration), and then cells were washed twice with ice-cold phosphate buffered saline (PBS).
Subsequently, the treated cells were collected by centrifugation, fixed in ice-cold 70% (v/v) ethanol, washed with PBS, re-suspended with 100 μg/mL RNase, stained with 40 μg/mL PI, and analyzed by flow cytometry using FACS Calibur (Becton Dickinson, BD, Franklin Lakes, NJ, USA). The cell cycle distributions were calculated using CellQuest software 5.1 (Becton

In test [5] the test system is Panc-1 cells. Description: Annexin V-FITC/PI apoptosis assay. The format is cell-based, human. The following applies: Panc-1, IC50 concentration. As for the experimental part: Anx V flowcytometry assay is featured as a helpful tool to determine whether cells death is due to the physiological apoptosis or to the non-specific necrosis.
3. Annexin V-FITC Apoptosis Assay
Phosphatidylserine externalization was assayed using Annexin V-FITC/PI apoptosis detection kit (BD Biosciences, USA) according to the manufacturer’s instructions. Pancreatic cancer Panc-1 […]
concentration. Briefly, cells were then harvested via trypsinization, and rinsed twice in PBS followed by binding buffer. Moreover, cells were re-suspended in 100 μL of binding buffer with the addition of 1 μL of FITC-Annexin V followed by an incubation period of 30 min at 4 °C. Cells were then rinsed in binding buffer and resuspended in 150 μL of binding buffer with the addition

The subject of test [6] is MCF-7 breast cancer cell line. As to the kind of experiment: SRB anti-proliferative assay, MCF-7. The format is cell-based, human. Particulars: Homo sapiens, MCF7; SRB, 48 h; mean of 3 separate experiments; read-out: IC50 MCF-7.
Description: as §1, §2, §3, §4, §5

Test [7] deals with Panc-1 pancreatic cancer cell line. Description: SRB anti-proliferative assay, Panc-1. The format is cell-based, human. The following applies: Homo sapiens, PANC-1; SRB, 48 h; mean of 3 separate experiments; read-out: IC50 Panc-1.
Description: as §1, §2, §3, §4, §5

As to `O=C(NNC(=S)Nc1cccc(C(F)(F)F)c1)c1oc2ccccc2c1CN1CCN(c2ccccc2)CC1` [Compound 9h], the IC50 in test [1] was 27700 ± 1800 nM; in test [2], 1710 ± 120 nM; in test [3], 40.9 ± 2.1 nM; in test [6] it was 2920 ± 170 nM; in test [7], 940 ± 100 nM. The “proportion of cells in sub-G1 phase” value in test [4] (control 2.36%) stood at 30.32%. Also, in test [4] (control 12.17%), the “proportion of cells in G2/M phase” value came to 32.46%. The “cells population in S phase” value in test [4] (control 41.90%) amounted to 16.66%. Besides, in test [4] (control 43.57%), the “cells population in G0/G1 phase” value is 20.56%. Besides, the “total apoptotic cells percentage” value in test [5] (control 2.41%) is recorded as 43.51%. Moreover, the “early apoptotic phase percentage” value in test [5] (lower right quadrant, control 0.59%) stood at 5.41%. In test [5] (upper right quadrant, control 0.32%), the “late apoptotic phase percentage” value came to 20.99%.
